Measurements as given in patent publication US7875625B2, “Cyclohepta[b]pyridine-3-carbonylguanidine derivative and pharmaceutical product containing same” (Toa Eiyo Ltd., priority 2005, dated 2011).
Structures can show the parent of a compound that is named as a salt.

Key:
[1] = target: T1, Na^+/H^+ exchanger (NHE) (Rattus norvegicus, UniProt P26431); experiment: NHE inhibitory effect test (swelling of rat platelets induced by sodium propionate); assay type: cell-based; conditions: for IC50: rat platelet-rich plasma, sodium propionate buffer pH 6.7, 300 μM Amiloride taken as 100% inhibition, Probit method; for NHE inhibitory activity (in words): compared with the control compound
T1 construct: from tissue; host or cells: platelet-rich plasma from Wistar rat blood
Experimental: The NHE inhibitory activity was measured according to the method by Scholz et al. [British Journal of Pharmacology, Vol. 109, p. 562-568 (1993)], taking the swelling of rat platelets induced by sodium propionate as an index.
Under etherization, blood was collected (8 mL) from the abdominal aorta of a Wistar rat, and 1 mL of a citrate dextrose solution as an anticoagulant was added. The blood sample was immediately centrifuged at 90×g for 10 minutes, and then the collected supernatant was taken as platelet-rich plasma. Subsequently, to 250 μL of a 140 mM sodium propionate buffer solution containing the test compound dissolved in dimethylsulfoxide (pH 6.7, final dimethylsulfoxide concentration 1%), the platelet-rich plasma prepared in the above (number of platelet; 10×10^6/50 μL) was added, and the decrease in the absorbance associated with the swelling of platelets was measured over time with a Hematracer (NKK Corp.).
The rate of decrease in the absorbance at 20 seconds after the addition of the platelet-rich plasma was taken as the NHE activity, and the inhibitory activity of the respective compounds was expressed as a relative activity, while the action obtained upon addition of 300 μM of Amiloride was taken as 100% inhibition.
In addition, the test results were obtained by calculating the concentration at which the inhibitory activity of the test compound becomes 50% (IC50 value), by a Probit method.

[2] = system: reperfusion-induced arrhythmia upon myocardial ischemia; experiment: Reperfusion-induced arrhythmia inhibitory action test; assay type: in vivo, rat; conditions: male SD rats, 3.62 mmol/L, 1 mL/kg intravenous, within 10 minutes after reperfusion
Experimental: Subsequently, in evaluation of the in vivo NHE inhibitory action, the effect of the test compound on reperfusion-induced arrhythmia upon myocardial ischemia was evaluated according to the method of Aihara et al. [European Journal of Pharmacology, Vol. 404, p. 221-229 (2000)]. Under anesthesia using pentobarbital sodium (60 mg/kg, intraperitoneal administration), cannulae were inserted into trachea, femoral vein and carotid artery of male SD rats ([…]) for artificial ventilation, drug administration and blood pressure measurement, respectively. The blood pressure was measured using a strain pressure amplifier via a pressure transducer, while the heart rate was measured from the blood pressure pulse wave using a cardiotachometer. Furthermore, an electrocardiogram (lead II) was measured from the electrodes attached to each four limbs. Next, under artificial ventilation, left thoracotomy was performed and a snare (5-0 nylon) was loosely placed around a blood vessel which was about 3 mm apart from the origin of the left coronary artery. Thereafter, it was confirmed that arrhythmia was not occurred for 10 minutes, and then the snare was fastened to induce local myocardial ischemia. Furthermore, after 4 minutes of myocardial ischemia, the compound was intravenously administered for 1 minute, and after 5 minutes of myocardial ischemia, the snare was loosened, then the arrhythmia occurred after reperfusion was recorded and analyzed with an arrhythmia analyzer (Softron Co., Ltd.), thereby the anti-arrhythmic action of the compound was evaluated. […] The control group was administered with physiological saline.
With regard to the ventricular fibrillation (Vf) which occurred within 10 minutes after reperfusion (in the cases of halfway death, up to the time point where cardiac arrest was confirmed), arrhythmia analysis was performed according to the Guidelines for Lambeth Convention [Cardiovascular research, Vol. 22, p. 447-455, 1988], and evaluation was made in terms of the frequency of Vf occurrence, cumulative duration time of Vf, and the mortality.
The frequency of Vf occurrence, cumulative duration of Vf, and the mortality for the respective test compounds are presented in Table 2.

[3] = Metabolic stability test in rat (generation of control compound in plasma); assay type: in vivo; conditions: male SD rats; for Plasma concentration of the control compound, after 5 min / Plasma concentration of the control compound, after 15 min / Plasma concentration of the control compound, after 30 min / Plasma concentration of the control compound, after 60 min / Plasma concentration of the control compound, after 120 min: equivalent of 1 mg/kg control compound via tail vein, LC/MS/MS; for Decomposition into the Control Compound in vivo (in words): tail vein, plasma 5-120 min
From the text: The compound represented by Formula (1) of the present invention has a structure in which the hydroxyl group on the 9-position of a 9-hydroxymethyl-cyclohepta[b]pyridine-3-carbonylguanidine derivative is converted to a specific substituent. However, if the compound is metabolized in vivo to remove the specific substituent from the compound, there may be generated the original 9-hydroxymethyl-cyclohepta[b]pyridine-3-carbonylguanidine derivative, which has toxic effects on the central nervous system. Thus, the inventive compounds as synthesized in Examples were administered in vivo to study whether the control compound, which was the corresponding 9-hydroxymethyl product, was generated.
Male SD rats (7 weeks old) were administered at 1 mg/kg (an amount calculated excluding salts) of the control compound, an equivalent amount of the Inventive Compound 2, 4, 6, 7 or 12, or Reference Compound 20, through the tail vein. After administration, about 0.2 mL of blood samples were collected after 5, 15, 30, 60 and 120 minutes, and the blood samples were centrifuged at 4° C. at a speed of rotation of 15000 for 15 minutes, thus to separate the supernatant plasma. The concentration of the control compound in the plasma was measured by LC/MS/MS. The measurement results were shown as +++ when the detected plasma concentration of the control compound is 200 ng/mL or greater; ++ for more than 100 ng/mL and less than 200 ng/mL; + for more than 20 ng/mL and less than 100 ng/mL; and − for less than 20 ng/mL or no detection.

[4] = system: male mice; experiment: Toxicity test with 2-days repeated intraperitoneal administration in mouse; assay type: in vivo; conditions: equivalent of 300 mg/kg control compound intraperitoneally once a day for 2 days
Experimental: For three male mice in each group, 300 mg/kg of the Control Compound (an amount calculated excluding salts), or an equivalent amount of the Inventive Compound 2, 4, 6, 7 or 12 were intraperitoneally administered once a day for 2 days, and a histopathological tests were performed. The Control Compound, and the Inventive Compounds 2, 4 and 6 were suspended in a 0.5% tragacanth gum solution, and the Inventive Compound 7 was suspended in a 10 DMSO-containing 0.5% tragacanth gum solution, while the Inventive Compound 12 was suspended in olive oil. For the histopathological test, in order to make a more thorough examination of central nervous toxicity, the brain was examined after whole body was subjected to perfusion fixation with a 4% formaldehyde in neutral phosphate buffer as a fixing solution using a liquid transporting pump under pentobarbital sodium anesthesia.

[5] = system: Beagle dogs; experiment: Toxicity test after 4-days repeated intravenous administration in beagle dogs; assay type: in vivo, dog; conditions: equivalent of 30 mg/kg control compound intravenously once a day for 4 days
Experimental: With one male and one female dogs in each group, 30 mg/kg of the Control Compound dissolved in physiological saline (an amount calculated excluding salts), or an equivalent amount of the Inventive Compound 2, 4, 6 or 8 was repeatedly administered intravenously once a day for 4 days, and general symptom observation and pharmacological histopathologic examination were performed.

T1 sequence (P26431 whole entry): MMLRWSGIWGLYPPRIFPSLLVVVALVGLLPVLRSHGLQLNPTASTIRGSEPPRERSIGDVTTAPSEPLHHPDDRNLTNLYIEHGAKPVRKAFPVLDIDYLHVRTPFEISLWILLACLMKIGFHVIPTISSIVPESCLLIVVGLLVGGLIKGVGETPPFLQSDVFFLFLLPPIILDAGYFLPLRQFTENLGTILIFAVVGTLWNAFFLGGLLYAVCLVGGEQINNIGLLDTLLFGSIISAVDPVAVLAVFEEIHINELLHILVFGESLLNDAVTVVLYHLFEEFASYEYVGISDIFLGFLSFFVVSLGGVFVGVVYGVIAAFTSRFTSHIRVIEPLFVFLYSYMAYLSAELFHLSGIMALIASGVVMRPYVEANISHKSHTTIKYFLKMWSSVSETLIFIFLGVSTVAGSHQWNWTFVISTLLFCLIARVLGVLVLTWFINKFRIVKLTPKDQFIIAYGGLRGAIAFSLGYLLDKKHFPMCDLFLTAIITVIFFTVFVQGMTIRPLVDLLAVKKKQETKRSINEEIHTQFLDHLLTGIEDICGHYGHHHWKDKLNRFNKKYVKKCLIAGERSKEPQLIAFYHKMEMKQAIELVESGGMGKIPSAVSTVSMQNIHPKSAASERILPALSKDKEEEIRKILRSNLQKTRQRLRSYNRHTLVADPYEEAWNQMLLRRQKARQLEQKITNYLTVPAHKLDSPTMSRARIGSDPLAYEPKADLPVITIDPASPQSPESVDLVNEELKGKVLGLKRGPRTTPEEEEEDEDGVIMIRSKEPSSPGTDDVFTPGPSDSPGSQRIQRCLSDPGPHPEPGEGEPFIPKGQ

NHE inhibitory activity (in words) [1] | Compound | IC50 [1] [µM] | Cumulative duration of Vf [2] [s] | Frequency of Vf occurrence [2] [%] | Mortality [2] [%] | Plasma concentration of the control compound, after 5 min [3] | Plasma concentration of the control compound, after 15 min [3] | Plasma concentration of the control compound, after 30 min [3] | Plasma concentration of the control compound, after 60 min [3] | Plasma concentration of the control compound, after 120 min [3] | Decomposition into the Control Compound in vivo (in words) [3] | Histopathological finding in the brain [4] | General condition (symptom observation) [5] | Pathologic examination of the brain [5]
 | Cc1nc2c(cc1C(=O)NC(=N)N)CCCCC2COC(=O)NCCOCCOS(=O)(=O)O (stereo not drawn) [Inventive Compound 7, 2-[2-(3-Guanidinocarbonyl-2-methyl-6,7,8,9-tetrahydro-5H-cyclohepta[b]pyridin-9-ylmethyloxycarbonylamino)ethoxy]ethyl hydrogen sulfate] | 0.313 | 15.4 | 40 | 0 | − (− for less than 20 ng/mL or no detection) | − (− for less than 20 ng/mL or no detection) | − (− for less than 20 ng/mL or no detection) | − (− for less than 20 ng/mL or no detection) | − (− for less than 20 ng/mL or no detection) | not detected at any time point | any histologic finding which could be caused by drug administration was not recognized |  | 
 | Cc1nc2c(cc1C(=O)NC(=N)N)CCCCC2COC(=O)NCCOCCOS(=O)(=O)[O-].[Na+] (stereo not drawn) [Inventive Compound 8, 2-[2-(3-Guanidinocarbonyl-2-methyl-6,7,8,9-tetrahydro-5H-cyclohepta[b]pyridin-9-ylmethyloxycarbonylamino)ethoxy]ethyl sulfate sodium salt] |  |  |  |  |  |  |  |  |  |  |  | only vomiting was recognized | any histologic finding which could be caused by drug administration was not recognized
 | Cc1nc2c(cc1C(=O)NC(=N)N)CCCCC2COC(=O)NCCOCCOCCOCCOCCOCCOS(=O)(=O)[O-].[Na+] (stereo not drawn) [Inventive Compound 10, 17-(3-Guanidinocarbonyl-2-methyl-6,7,8,9-tetrahydro-5H-cyclohepta[b]pyridin-9-ylmethyloxycarbonylamino)-3,6,9,12,15-pentaoxaheptadecan-1-yl sulfate sodium salt] | 0.291 | 11.1 | 67 | 0 |  |  |  |  |  |  |  |  | 
 | Cc1nc2c(cc1C(=O)NC(=N)N)CCCCC2COC(=O)N[C@H]1CO[C@H]2[C@@H]1OC[C@H]2OS(=O)(=O)O (stereo partly drawn) [Inventive Compound 12, 2-Deoxy-1,4:3,6-dianhydro-2-(3-guanidinocarbonyl-2-methyl-6,7,8,9-tetrahydro-5H-cyclohepta[b]pyridin-9-ylmethyloxycarbonylamino)-D-glucitol-5-yl hydrogen sulfate] | 0.227 | 0.0 | 0 | 0 | − (− for less than 20 ng/mL or no detection) | − (− for less than 20 ng/mL or no detection) | − (− for less than 20 ng/mL or no detection) | − (− for less than 20 ng/mL or no detection) | − (− for less than 20 ng/mL or no detection) | not detected at any time point | any histologic finding which could be caused by drug administration was not recognized |  | 
 | Cc1nc2c(cc1C(=O)NC(=N)N)CCCCC2COP(=O)([O-])[O-].[Na+].[Na+] (stereo not drawn) [Reference Compound 20, 3-Guanidinocarbonyl-2-methyl-6,7,8,9-tetrahydro-5H-cyclohepta[b]pyridin-9-ylmethyl phosphate disodium salt, reference compound] | 0.662 | 46.8 | 80 | 40 | +++ (+++ when the detected plasma concentration of the control compound is 200 ng/mL or greater) | ++ (++ for more than 100 ng/mL and less than 200 ng/mL) | + (+ for more than 20 ng/mL and less than 100 ng/mL) | + (+ for more than 20 ng/mL and less than 100 ng/mL) | − (− for less than 20 ng/mL or no detection) | rapidly degraded to the Control Compound |  |  | 
significant lowering in the activity | N=C(N)NC(=O)c1cc2c(nc1COS(=O)(=O)O)CCCCC2 [Reference Compound 22, 3-Guanidinocarbonyl-6,7,8,9-tetrahydro-5H-cyclohepta[b]pyridin-2-ylmethyl hydrogen sulfate, reference compound] | > 100 |  |  |  |  |  |  |  |  |  |  |  | 
significant lowering in the activity | Cc1nc2c(cc1C(=O)NC(=N)N)C(OS(=O)(=O)O)CCCC2 (stereo not drawn) [Reference Compound 23, 3-Guanidinocarbonyl-2-methyl-6,7,8,9-tetrahydro-5H-cyclohepta[b]pyridin-5-yl hydrogen sulfate, reference compound] | 37.1 |  |  |  |  |  |  |  |  |  |  |  | 
